We go through nine compounds from ChEMBL document CHEMBL1201862, “PubChem BioAssay data set” (2004).

SMILES strings stand for the structures.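 Test compounds were applied to cells in 96-well plates for 48 hours at 5 doses. Here, GI50 denotes the concentration required for 50% inhibition of growth.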 Active and inactive are the calls of the source. Rule as the data show it: active = GI50 up to about 1.1 µM and inactive = higher.

Among the test systems are SR; HCT-15; UACC-257; SW-620; K562; LOX IMVI; Hs-578T; CAKI-1; HOP-92; NCI/ADR-RES; ACHN; NCI-H226; M14; HCT-116; SF-539; T47D; CCRF-CEM; HCC 2998; MDA-N; SK-OV-3.
Common to all, as to test: inhibition of tumour cell growth, NCI panel, 48 h

`Nc1ncnc2c1ncn2Cc1cccc(CCl)c1`: the GI50 is 6.43 µM (inactive) in the assay with SR; 17.9 µM in the assay on HCT-15; 14.8 µM (inactive) in the assay with UACC-257; 12.4 µM (inactive) in the assay with SW-620; 21.9 µM (inactive) in the assay on K562; 20.1 µM (inactive) in the assay with LOX IMVI. The GI50 in the assay with Hs-578T was 22.8 µM (inactive); with CAKI-1, 18.8 µM (inactive); in the assay on HOP-92 it was 19.7 µM (inactive); in the assay with NCI/ADR-RES it was 18.5 µM (inactive); in the assay with ACHN it was 14.8 µM (inactive); in the assay on NCI-H226, 16 µM (inactive). The GI50 in the assay on M14 was 14.1 µM (inactive); in the assay with HCT-116, 10.4 µM (inactive); in the assay with SF-539, 14.8 µM (inactive).
Consider `COc1ccc2nc3ccc(OC)cc3c(S(=O)(=O)Cc3ccc([N+](=O)[O-])cc3)c2c1`, for which the GI50 is > 100 µM (inactive) in the assay with SR; above 100 µM in the assay on HCT-15; > 100 µM (inactive) in the assay with UACC-257; > 100 µM (inactive) in the assay on T47D; > 100 µM (inactive) in the assay on SW-620; > 100 µM (inactive) in the assay on CCRF-CEM. In addition, the GI50 in the assay on K562, in the assay on LOX IMVI, in the assay with CAKI-1, in the assay with HOP-92, in the assay with NCI/ADR-RES and in the assay with ACHN was > 100 µM (inactive) throughout. Further, the GI50 with HCC 2998, in the assay on MDA-N, in the assay with NCI-H226, in the assay with M14, in the assay with HCT-116 and in the assay with SK-OV-3 was > 100 µM (inactive) throughout. Besides, the GI50 in the assay with SF-539 was > 100 µM (inactive).
Turning to `COc1ccc(CC2C(=O)NC(C)C(=O)N(C)C3Cc4ccc(cc4)Oc4cc(ccc4O)CC(C(=O)NC(C)C(=O)NC(C)C(=O)N2C)N(C)C3=O)cc1` (stereo not drawn), the GI50 in the assay on SR is < 0.0001 µM (active); with HCT-15 it was 0.851 µM; with UACC-257 it was 0.0175 µM (active); in the assay with T47D, < 0.0001 µM (active); in the assay with SW-620, 0.0177 µM (active); with CCRF-CEM it was 0.0175 µM (active). For the same compound, the GI50 is 0.0175 µM (active) in the assay on K562; 0.0409 µM (active) in the assay on LOX IMVI; 2.44 µM (inactive) with NCI/ADR-RES; 0.0738 µM (active) with ACHN; 0.0175 µM (active) in the assay on HCC 2998; < 0.0001 µM (active) in the assay with MDA-N. The GI50 in the assay with M14 is 0.0027 µM (active); in the assay with HCT-116, 0.0175 µM (active); in the assay on SK-OV-3, 0.0175 µM (active); with SF-539, 0.0175 µM (active).
With `CN(C)S(=O)(=O)Nc1nnc(S(N)(=O)=O)s1`, the GI50 with SR is > 100 µM (inactive); with HCT-15, above 100 µM; in the assay with T47D, 64.3 µM (inactive); in the assay with SW-620 it was > 100 µM (inactive); in the assay with K562 it was > 100 µM (inactive); in the assay with Hs-578T, > 100 µM (inactive). The GI50 with CAKI-1, with HOP-92, in the assay with NCI/ADR-RES, in the assay with ACHN, in the assay on HCC 2998 and in the assay with NCI-H226 was > 100 µM (inactive) each time. Also, the GI50 with M14, with HCT-116, in the assay with SK-OV-3 and with SF-539 was > 100 µM (inactive) in each case.
Take `CC(=O)N1N=C(c2ccccc2Nc2ccccc2C2=NN(C(C)=O)C(c3ccccc3)O2)OC1c1ccccc1` (stereo not drawn): the GI50 was > 100 µM (inactive) in the assay on SR; 44.8 µM in the assay on HCT-15; > 100 µM (inactive) in the assay on T47D; 99.8 µM (inactive) in the assay on SW-620; 30.7 µM (inactive) in the assay on K562; 81.8 µM (inactive) with LOX IMVI. Moreover, the GI50 in the assay with HOP-92 is 93.8 µM (inactive); in the assay with NCI/ADR-RES, 55.6 µM (inactive); in the assay on ACHN, 86.5 µM (inactive); with HCC 2998, > 100 µM (inactive); in the assay with MDA-N, 29 µM (inactive); in the assay on NCI-H226 it was > 100 µM (inactive). The figures for the GI50 in the assay with M14, in the assay on HCT-116 and in the assay with SK-OV-3 were 56.1 µM (inactive), 32.5 µM (inactive) and 30.3 µM (inactive), respectively.
With `O=C1NC(N/N=C/c2ccccc2)=N/C1=C\c1ccco1`, the GI50 in the assay with HCT-15 is 40.6 µM; with UACC-257, > 100 µM (inactive); in the assay on T47D, 26.9 µM (inactive); with SW-620 it was 46 µM (inactive); in the assay on CCRF-CEM it was 25.6 µM (inactive); in the assay on Hs-578T, 31.5 µM (inactive). Further, the GI50 was 37.3 µM (inactive) with CAKI-1; 11.3 µM (inactive) with HOP-92; 32.7 µM (inactive) with NCI/ADR-RES; 21.9 µM (inactive) with ACHN; 32.1 µM (inactive) in the assay with HCC 2998; 35.5 µM (inactive) with NCI-H226. The GI50 in the assay on M14 is 46.2 µM (inactive); with HCT-116, 42.9 µM (inactive); in the assay on SK-OV-3, 54.2 µM (inactive).
With `COC(=O)C12C(=O)CC3CCC1C32C(=O)OC` (stereo not drawn), the GI50 with SR was > 100 µM (inactive); in the assay on HCT-15, above 100 µM; with UACC-257, > 100 µM (inactive); in the assay with SW-620 it was > 100 µM (inactive); with CCRF-CEM, > 100 µM (inactive); in the assay on K562 it was > 100 µM (inactive). Besides, the GI50 in the assay on LOX IMVI, in the assay with CAKI-1, in the assay with NCI/ADR-RES, with ACHN, in the assay with HCC 2998 and in the assay with MDA-N was > 100 µM (inactive) in each case. Also, the GI50 in the assay on NCI-H226, in the assay with M14, in the assay with HCT-116, in the assay on SK-OV-3 and in the assay with SF-539 was > 100 µM (inactive) throughout.
For the compound `CC1=[N+]([O-])C(C)(C)N(O)C1(C)C`, the GI50 in the assay on SR is > 100 µM (inactive); with HCT-15, above 100 µM; in the assay with T47D, > 100 µM (inactive); in the assay with SW-620 it was > 100 µM (inactive); in the assay with CCRF-CEM it was > 100 µM (inactive); in the assay with K562, > 100 µM (inactive). In addition, the GI50 in the assay on LOX IMVI, with HOP-92, in the assay on NCI/ADR-RES, in the assay on ACHN, in the assay on HCC 2998 and in the assay with MDA-N was > 100 µM (inactive) in each case. The GI50 with NCI-H226, with M14, with HCT-116, with SK-OV-3 and in the assay on SF-539 was > 100 µM (inactive) in each case.
`O=C(NC1CCCCC1)c1cc2ccccc2cc1O`: the GI50 in the assay with SR is 38.7 µM (inactive); in the assay on HCT-15, 26.4 µM; in the assay on UACC-257, 36.6 µM (inactive); in the assay with T47D it was 42.6 µM (inactive); in the assay with SW-620, 35.2 µM (inactive); in the assay with CCRF-CEM, 38.9 µM (inactive). Also, the GI50 in the assay with K562 is 27.7 µM (inactive); in the assay with LOX IMVI, 38.8 µM (inactive); in the assay on Hs-578T, 36.2 µM (inactive); in the assay on CAKI-1, 47 µM (inactive); in the assay with HOP-92, 22.3 µM (inactive); with NCI/ADR-RES, 17.7 µM (inactive). Also, the GI50 is 23.5 µM (inactive) in the assay on HCC 2998; 17.3 µM (inactive) with NCI-H226; 21.9 µM (inactive) in the assay on M14; 18.7 µM (inactive) with HCT-116; 49.1 µM (inactive) with SK-OV-3; 24 µM (inactive) in the assay on SF-539.
